Reference: paper PMC8391575, “Identification of Novel Cathepsin B Inhibitors with Implications in Alzheimer’s Disease: Computational Refining and Biochemical Evaluation” (Cells, 2021)
Read-outs that look alike come from different tables or passages of the source.

What was measured:
AD animal models = conditions: cited from earlier work
cathepsin B = conditions: cited from earlier work; for pIC50 Experimental: Table 4
human cathepsin B = target: T1, human cathepsin B (Homo sapiens, UniProt P07858); assay: Cathepsin B inhibitory assay, fluorometric kit (ab185438), AFC substrate; type: biochemical; conditions: 10 µM
T1 construct: purchased ab185438
Protocol: Cathepsin B inhibitory assay was performed using a fluorometric-based assay kit as per company instructions (ab185438). The assay kit utilizes the ability of cathepsin B to cleave synthetic AFC (7-Amino-4-trifluoromethyl coumarin) substrate to freely release AFC; moreover, this AFC can be quantified by a fluorometer. In the presence of cathepsin B inhibitors, the cleavage of the substrate was reduced, and there was a decrease in the total loss of the AFC fluorescence. The experiments were performed in triplicate. The test compounds (virtual screened hits) were prepared in different concentrations of 2.5, 5.0, 10.0, 15.0, and 20.0 µM. […] Next, fluorescence was measured in a kinetic mode for 30–60 min at 37 °C (Ex/Em = 400/505). Two timepoints were used—0 and 15 min (ΔT = T2 − T1)—and corresponding values for the fluorescence (ΔRFU = RFU2-RFU1) were used to calculate the slope for all test inhibitor samples and EC, by dividing the net ΔRFU values by the time ΔT. The percentage of relative inhibition was calculated using the following formula: % Relative Inhibition=Slope of EC−Slope of Sample /Slope of EC×100

[1] = Figure 1, previously reported inhibitors of cathepsin B, read-out: IC50
[2] = class of the experimental IC50, read-out: Activity Scale Experimental
[3] = Table S1, read-out: IC50: half maximal inhibitory concentration

Compound | pIC50 Experimental (cathepsin B) | IC50 (cathepsin B; [2]) [nM] | further results
CCOC(=O)[C@H]1O[C@@H]1C(=O)N[C@@H](CC(C)C)C(=O)NCCC(C)C [Compound N20, ethyl (2S,3S)-3-[[(2S)-4-methyl-1-(3-methylbutylamino)-1-oxopentan-2-yl]carbamoyl]oxirane-2-carboxylate] | 8.47 | < 300 | Aβ in the brain (AD animal models): reduces Aβ in the brain; memory deficits (AD animal models): improves memory deficits; IC50 (cathepsin B; [1]): 14 nM
Cc1ccc(S(=O)(=O)n2nc(OC(=O)c3ccco3)cc2N)cc1 [Compound S12, [5-amino-1-(4-methylphenyl)sulfonylpyrazol-3-yl] furan-2-carboxylate] | 5.76 | 300 to 2500 | IC50 (cathepsin B; [3]): 1750 nM
CCn1nc(-c2cccs2)nc2c(=O)n(C)c(=O)nc1-2 [Compound S13, 1-Ethyl-6-methyl-3-thiophen-2-yl-1H-pyrimido[5,4-e][1,2,4]triazine-5,7-dione] | 7.14 | < 300 | 
COc1ccc(S(=O)(=O)n2nc(OC(=O)c3ccco3)cc2N)cc1 [Compound S15] | 6.03 | 300 to 2500 | 
CC(=O)NC(=O)NC1OC(=O)C(Cl)=C1Cl (centres unmarked) [Compound S16, N-[(3,4-dichloro-5-oxo-2H-furan-2-yl)carbamoyl]acetamide] | 5.67 | 300 to 2500 | IC50 (cathepsin B; [3]): 2120 nM
COc1ccc(S(=O)(=O)n2nc(OC(=O)c3ccccc3)cc2N)cc1 [Compound S17, [5-amino-1-(4-methoxyphenyl)sulfonylpyrazol-3-yl] benzoate] | 5.02 | > 2500 | 
CCOC(=O)C(C(=O)OCC)N(C#N)c1nc(SC)nc(N(C)C)n1 [Compound S19, diethyl 2-[cyano-[4-(dimethylamino)-6-methylsulfanyl-1,3,5-triazin-2-yl]amino]propanedioate] | 4.71 | > 2500 | 
COc1ccccc1/N=C/c1nc(-c2ccccc2)oc1OC(C)=O [Compound S20, [4-[(2-methoxyphenyl)iminomethyl]-2-phenyl-1,3-oxazol-5-yl] acetate] | 5.05 | > 2500 | 
CCC(=O)Oc1oc(-c2ccccc2)nc1/C=N/c1ccccc1OC [Compound S21, [4-[(2-methoxyphenyl)iminomethyl]-2-phenyl-1,3-oxazol-5-yl] propanoate] | 4.39 | > 2500 | 
O=C(Oc1oc(-c2ccco2)nc1/C=N/c1ccccc1)c1ccco1 [Compound S22, [2-(furan-2-yl)-4-(phenyliminomethyl)-1,3-oxazol-5-yl] furan-2-carboxylate] | 4.41 | > 2500 | 
CCC(C)[C@@H](NC(=O)OC(C)(C)C)c1nnc(S(=O)(=O)Cc2cccc(C)c2)o1 (stereo partly drawn) [Compound S23, tert-butyl N-[(1R)-2-methyl-1-[5-[(3-methylphenyl)methylsulfonyl]-1,3,4-oxadiazol-2-yl]butyl]carbamate] | 5.68 | 300 to 2500 | 
COc1nc(N(C#N)CC(N)=O)nc(N2CCCC2)n1 [Compound S24, 2-[cyano-(4-methoxy-6-pyrrolidin-1-yl-1,3,5-triazin-2-yl)amino]acetamide] | 4.85 | > 2500 | 
CC1=C(C)C[S+]([O-])N(S(=O)(=O)c2ccc(Cl)cc2)C1 (centres unmarked) [Compound S25, 2-(4-chlorophenyl)sulfonyl-4,5-dimethyl-3,6-dihydrothiazine 1-oxide] | 5.38 | > 2500 | 
COc1cccc(Cn2c(-c3nonc3N)nc3ccccc32)c1 [Compound S27, 4-[1-[(3-methoxyphenyl)methyl]benzimidazol-2-yl]-1,2,5-oxadiazol-3-amine] | 4.34 | > 2500 | 
CCSc1ccccc1C(=O)n1nnc2ccccc21 [Compound S28, benzotriazol-1-yl-(2-ethylsulfanylphenyl)methanone] | 5.15 | > 2500 | 
N#Cc1c(N2CCCC2)nc(N)c2c(N)nc(N3CCCC3)cc12 [Compound S29, 1,8-diamino-3,6-dipyrrolidin-1-yl-2,7-naphthyridine-4-carbonitrile] | 5.49 | > 2500 | 
Cn1c(=O)c2c(-c3ccccc3)n(-n3cnnc3)cc2n(C)c1=O [Compound S30, 1,3-dimethyl-5-phenyl-6-(1,2,4-triazol-4-yl)pyrrolo[3,4-d]pyrimidine-2,4-dione] | 5.93 | 300 to 2500 | 
COc1ccc(S(=O)(=O)n2nc(OC(=O)c3cccs3)cc2N)cc1 [Compound S31, [5-amino-1-(4-methoxyphenyl)sulfonylpyrazol-3-yl] thiophene-2-carboxylate] | 6.16 | 300 to 2500 | 
Nc1cc(OC(=O)c2cccs2)nn1S(=O)(=O)c1ccc(F)cc1 [Compound S32, [5-amino-1-(4-fluorophenyl)sulfonylpyrazol-3-yl] thiophene-2-carboxylate] | 6.36 | 300 to 2500 | 
CC(=O)OC1(C(F)(F)F)Oc2ccccc2NC1=O (centres unmarked) [Compound S33, [3-oxo-2-(trifluoromethyl)-4H-1,4-benzoxazin-2-yl] acetate] | 6.07 | 300 to 2500 | 
Nc1cc(OC(=O)c2cccs2)nn1S(=O)(=O)c1ccccc1 [Compound S34, [5-amino-1-(benzenesulfonyl)pyrazol-3-yl] thiophene-2-carboxylate] | 6.61 | < 300 | 
O=C(CNC(=O)c1ccco1)OCN1C(=O)c2ccccc2C1=O [Compound S35, (1,3-dioxoisoindol-2-yl)methyl 2-(furan-2-carbonylamino)acetate] | 5.07 | > 2500 | 
COc1ccc(C(=O)C(OC(=O)CNC(=O)c2ccco2)c2ccccc2)cc1 (centres unmarked) [Compound S36, [2-(4-methoxyphenyl)-2-oxo-1-phenylethyl] 2-(furan-2-carbonylamino)acetate] | 4.74 | > 2500 | 
O=C(CSc1nnc(-c2ccco2)c(-c2ccco2)n1)Nc1ccccc1 [Compound S37, 2-[[5,6-bis(furan-2-yl)-1,2,4-triazin-3-yl]sulfanyl]-N-phenylacetamide] | 5.65 | 300 to 2500 | 
CCOC(=O)[C@@H]1O[C@H]1C(=O)N[C@@H](CC(C)C)C(=O)N1CCN(Cc2ccc(OC)c(OC)c2OC)CC1 [Compound S39, ethyl(2R,3R)-3-[[(2S)-4-methyl-1-oxo-1-[4-[(2,3,4-trimethoxyphenyl)methyl]piperazin-1-yl]pentan-2-yl]carbamoyl]oxirane-2-carboxylate; sulfuric acid] | 6.09 | 300 to 2500 | IC50 (cathepsin B; [3]): 800 nM
O=c1cc(-c2ccc(Oc3c(O)cc4oc(-c5ccc(O)cc5)cc(=O)c4c3O)cc2)oc2cc(O)cc(O)c12 [HIF, Hinokiflavone] |  |  | IC50 (cathepsin B; [1]): 580 nM
F-F-FMK |  |  | relative inhibition (human cathepsin B): 69.67%
